Experimental data published in patent US20080242663A1, “NOVEL PYRIMIDINE DERIVATIVES 698” (ASTRAZENECA AB, priority 2007, published 2008).

biological target: T1, recombinant EphB4 (Homo sapiens, UniProt P54760); assay: In vitro EphB4 enzyme assay (Alphascreen); assay type: biochemical
T1 construct: amino acids 563-987; Swiss-Prot Acc; No. P54760; purchased ProQinase GmbH 0178-0000-3
T1 sequence (P54760 563-987): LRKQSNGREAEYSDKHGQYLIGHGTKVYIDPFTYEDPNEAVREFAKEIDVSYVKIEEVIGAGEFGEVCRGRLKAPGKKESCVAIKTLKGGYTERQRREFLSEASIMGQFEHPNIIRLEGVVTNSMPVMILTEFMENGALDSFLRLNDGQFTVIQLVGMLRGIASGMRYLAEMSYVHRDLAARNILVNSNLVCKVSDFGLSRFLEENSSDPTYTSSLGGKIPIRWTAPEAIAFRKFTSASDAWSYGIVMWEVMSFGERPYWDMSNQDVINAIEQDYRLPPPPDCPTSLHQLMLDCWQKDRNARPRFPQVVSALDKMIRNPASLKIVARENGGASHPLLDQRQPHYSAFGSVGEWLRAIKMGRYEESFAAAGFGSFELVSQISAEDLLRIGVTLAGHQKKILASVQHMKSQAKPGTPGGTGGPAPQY
In short: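 Recombinant EphB4 phosphorylated biotin-poly-GAT with Mg-ATP for 1 hr at room temperature; EDTA stop, then Alphascreen donor/acceptor (anti-phosphotyrosine) beads for 20 hrs in the dark. After minimum subtraction, signal plotted against compound concentration to derive IC50.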

| IC50 [nM] | SMILES |
| --- | --- |
| 62.3 | Cc1ccc(CO)cc1N(C)c1ccnc(Nc2cc(C(=O)N3CCCC3)cc(N3CCOCC3)c2)n1 [Example 18.2] |
| 246 | Cc1ccc(CO)cc1N(C)c1ccnc(Nc2cc(C(=O)NCC(C)C)cc(N3CCOCC3)c2)n1 [Example 18.3, 3-[[4-[[5-(hydroxymethyl)-2-methyl-phenyl]-methyl-amino]pyrimidin-2-yl]amino]-N-(2-methylpropyl)-5-morpholin-4-yl-benzamide] |
| 75.3 | CCN(C)C(=O)c1cc(Nc2nccc(N(C)c3cc(CO)ccc3C)n2)cc(N2CCOCC2)c1 [Example 18.4, N-ethyl-3-[[4-[[5-(hydroxymethyl)-2-methyl-phenyl]-methyl-amino]pyrimidin-2-yl]amino]-N-methyl-5-morpholin-4-yl-benzamide] |
| 477 | Cc1ccc(CO)cc1N(C)c1ccnc(Nc2cc(C(=O)NCC3CC3)cc(N3CCOCC3)c2)n1 [Example 18.5, N-(cyclopropylmethyl)-3-[[4-[[5-(hydroxymethyl)-2-methyl-phenyl]-methyl-amino]pyrimidin-2-yl]amino]-5-morpholin-4-yl-benzamide] |
| 342 | Cc1ccc(CO)cc1N(C)c1ccnc(Nc2cc(C(=O)N(C)C(C)C)cc(N3CCOCC3)c2)n1 [Example 18.6, 3-[[4-[[5-(hydroxymethyl)-2-methyl-phenyl]-methyl-amino]pyrimidin-2-yl]amino]-N-methyl-5-morpholin-4-yl-N-propan-2-yl-benzamide] |
| 118 | COCCN(C)C(=O)c1cc(Nc2nccc(N(C)c3cc(CO)ccc3C)n2)cc(N2CCOCC2)c1 [Example 18.7, 3-[[4-[[5-(hydroxymethyl)-2-methyl-phenyl]-methyl-amino]pyrimidin-2-yl]amino]-N-(2-methoxyethyl)-N-methyl-5-morpholin-4-yl-benzamide] |
| 419 | CN(C)C(=O)c1cc(Nc2nccc(N(C)c3cccc(Cl)c3)n2)cc(N2CCOCC2)c1 [Example 19.1, 3-[[4-[(3-chlorophenyl)-methyl-amino]pyrimidin-2-yl]amino]-N,N-dimethyl-5-morpholin-4-yl-benzamide] |
| 395 | CN(CCO)C(=O)c1cc(Nc2nccc(N(C)c3cccc(Cl)c3)n2)cc(N2CCOCC2)c1 [Example 19.2, 3-[[4-[(3-chlorophenyl)-methyl-amino]pyrimidin-2-yl]amino]-N-(2-hydroxyethyl)-N-methyl-5-morphohn-4-yl-benzamide] |
| 571 | COCCN(C)C(=O)c1cc(Nc2nccc(N(C)c3cccc(Cl)c3)n2)cc(N2CCOCC2)c1 [Example 19.3, 3-[[4-[(3-chlorophenyl)-methyl-amino]pyrimidin-2-yl]amino]-N-(2-methoxyethyl)-N-methyl-5-morpholin-4-yl-benzamide] |
| 295 | CN(CCCO)C(=O)c1cc(Nc2nccc(N(C)c3cccc(Cl)c3)n2)cc(N2CCOCC2)c1 [Example 19.4, 3-[[4-[(3-chlorophenyl)-methyl-amino]pyrimidin-2-yl]amino]-N-(3-hydroxypropyl)-N-methyl-5-morpholin-4-yl-benzamide] |
| 181 | C[C@H](O)CN(C)C(=O)c1cc(Nc2nccc(N(C)c3cccc(Cl)c3)n2)cc(N2CCOCC2)c1 [Example 19.5, 3-[[4-[(3-chlorophenyl)-methyl-amino]pyrimidin-2-yl]amino]-N-[(2S)-2-hydroxypropyl]-N-methyl-5-morpholin-4-yl-benzamide] |
| 339 | C[C@@H](CO)N(C)C(=O)c1cc(Nc2nccc(N(C)c3cccc(Cl)c3)n2)cc(N2CCOCC2)c1 [Example 19.6] |
| 648 | CCN(C)C(=O)c1cc(Nc2nccc(N(C)c3cccc(Cl)c3)n2)cc(N2CCOCC2)c1 [Example 19.7, 3-[[4-[(3-chlorophenyl)-methyl-amino]pyrimidin-2-yl]amino]-N-ethyl-N-methyl-5-morpholin-4-yl-benzamide] |
| 1450 | CC(C)N(C)C(=O)c1cc(Nc2nccc(N(C)c3cccc(Cl)c3)n2)cc(N2CCOCC2)c1 [Example 19.8] |
| 754 | CN(c1cccc(Cl)c1)c1ccnc(Nc2cc(C(=O)N3CCCC3)cc(N3CCOCC3)c2)n1 [Example 19.9] |
| 656 | CN(c1cccc(Cl)c1)c1ccnc(Nc2cc(C(=O)N3CCOCC3)cc(N3CCOCC3)c2)n1 [Example 19.10, [3-[[4-[(3-chlorophenyl)-methyl-amino]pyrimidin-2-yl]amino]-5-morpholin-4-yl-phenyl]-morpholin-4-yl-methanone] |
| 207 | CN1CCN(C(=O)c2cc(Nc3nccc(N(C)c4cccc(Cl)c4)n3)cc(N3CCOCC3)c2)CC1 [Example 19.11, [3-[[4-[(3-chlorophenyl)-methyl-amino]pyrimidin-2-yl]amino]-5-morpholin-4-yl-phenyl]-(4-methylpiperazin-1-yl)methanone] |

| IC50 [nM] | SMILES |
| --- | --- |
| 234 | CN(c1cccc(Cl)c1)c1ccnc(Nc2cc(C(=O)N3CCC(O)CC3)cc(N3CCOCC3)c2)n1 [Example 19.12, [3-[[4-[(3-chlorophenyl)-methyl-amino]pyrimidin-2-yl]amino]-5-morpholin-4-yl-phenyl]-(4-hydroxy-1-piperidyl) methanone] |
| 2080 | CN(c1cccc(Cl)c1)c1ccnc(Nc2cc(C(=O)NC3CCC3)cc(N3CCOCC3)c2)n1 [Example 19.13, 3-[[4-[(3-chlorophenyl)-methyl-amino]pyrimidin-2-yl]amino]-N-cyclobutyl-5-morpholin-4-yl-benzamide] |
| 1180 | CC(C)NC(=O)c1cc(Nc2nccc(N(C)c3cccc(Cl)c3)n2)cc(N2CCOCC2)c1 [Example 19.14, 3-[[4-[(3-chlorophenyl)-methyl-amino]pyrimidin-2-yl]amino]-5-morpholin-4-yl-N-propan-2-yl-benzamide] |
| 1100 | COCC(C)NC(=O)c1cc(Nc2nccc(N(C)c3cccc(Cl)c3)n2)cc(N2CCOCC2)c1 (stereo not drawn) [Example 19.15, 3-[[4-[(3-chlorophenyl)-methyl-amino]pyrimidin-2-yl]amino]-N-(1-methoxypropan-2-yl)-5-morpholin-4-yl-benzamide] |
| 1970 | CN(c1cccc(Cl)c1)c1ccnc(Nc2cc(C(=O)NCC3CC3)cc(N3CCOCC3)c2)n1 [Example 19.16, 3-[[4-[(3-chlorophenyl)-methyl-amino]pyrimidin-2-yl]amino]-N-(cyclopropylmethyl)-5-morpholin-4-yl-benzamide] |
| 2830 | CC(C)CNC(=O)c1cc(Nc2nccc(N(C)c3cccc(Cl)c3)n2)cc(N2CCOCC2)c1 [Example 19.17, 3-[[4-[(3-chlorophenyl)-methyl-amino]pyrimidin-2-yl]amino]-N-(2-methylpropyl)-5-morphohn-4-yl-benzamide] |
| 614 | COCCNC(=O)c1cc(Nc2nccc(N(C)c3cccc(Cl)c3)n2)cc(N2CCOCC2)c1 [Example 19.18, 3-[[4-[(3-chlorophenyl)-methyl-amino]pyrimidin-2-yl]amino]-N-(2-methoxyethyl)-5-morpholin-4-yl-benzamide] |
| 1050 | CN(c1cccc(Cl)c1)c1ccnc(Nc2cc(C(=O)NC(C)(C)CO)cc(N3CCOCC3)c2)n1 [Example 19.19, 3-[[4-[(3-chlorophenyl)-methyl-amino]pyrimidin-2-yl]amino]-N-(1-hydroxy-2-methyl-propan-2-yl)-5-morpholin-4-yl-benzamide] |
| 3090 | CN(c1cccc(Cl)c1)c1ccnc(Nc2cc(C(=O)NC(C)(C)C)cc(N3CCOCC3)c2)n1 [Example 19.20, 3-[[4-[(3-chlorophenyl)-methyl-amino]pyrimidin-2-yl]amino]-5-morpholin-4-yl-N-tert-butyl-benzamide] |
| 527 | C[C@@H](CO)NC(=O)c1cc(Nc2nccc(N(C)c3cccc(Cl)c3)n2)cc(N2CCOCC2)c1 [Example 19.21, 3-[[4-[(3-chlorophenyl)-methyl-amino]pyrimidin-2-yl]amino]-N-[(2S)-1-hydroxypropan-2-yl]-5-morpholin-4-yl-benzamide] |
| 119 | CN(c1cccc(Cl)c1)c1ccnc(Nc2cc(C(=O)N3CC[C@@H](O)C3)cc(N3CCOCC3)c2)n1 [Example 19.22, [3-[[4-[(3-chlorophenyl)-methyl-amino]pyrimidin-2-yl]amino]-5-morpholin-4-yl-phenyl]-[(3R)-3-hydroxypyrrolidin-1-yl]methanone] |
| 1310 | C[C@H](CO)NC(=O)c1cc(Nc2nccc(N(C)c3cccc(Cl)c3)n2)cc(N2CCOCC2)c1 [Example 19.23, 3-[[4-[(3-chlorophenyl)-methyl-amino]pyrimidin-2-yl]amino]-N-[(2R)-1-hydroxypropan-2-yl]-5-morpholin-4-yl-benzamide] |
| 1000 | CN(c1cccc(Cl)c1)c1ccnc(Nc2cc(C(=O)NC3CCOCC3)cc(N3CCOCC3)c2)n1 [Example 19.24, 3-[[4-[(3-chlorophenyl)-methylamino]pyrimi-din-2-yl]amino]-5-morpholin-4-yl-N-(oxan-4-yl)benzamide] |
| 875 | CCNC(=O)c1cc(Nc2nccc(N(C)c3cccc(Cl)c3)n2)cc(N2CCOCC2)c1 [Example 19.25, 3-[[4-[(3-chlorophenyl)-methylamino]pyrimidin-2-yl]amino]-N-ethyl-5-morpholin-4-ylbenzamide] |
| 912 | COc1cccc(N(c2ccnc(Nc3cc(N4CCOCC4)cc(N4CCOCC4)c3)n2)C(C)C)c1 [Example 20, N2-(3,5-dimorpholinophenyl)-N4-isopropyl-N4-(3-methoxyphenyl)pyrimidine-2,4-diamine] |
| 25 | Cc1ccc(CO)cc1N(CCO)c1ccnc(Nc2cc(N3CCOCC3)cc(N3CCOCC3)c2)n1 [Example 21.3] |
